The source of these data is publication PMC10257517 (European Journal of Medicinal Chemistry, 2023).

The nature of one data set: MTT cytotoxicity assay. It is filed as cell-based. The settings on record: African green monkey, VERO-E6 cells. In general terms: Tetrazolium assays rely on reduction of a dye to a coloured formazan, in cell work by metabolically active cells.
Data set [1] deals with SARS-CoV-2 (hCoV-19/Egypt/NRC-03/2020). In kind it is cell-based. The settings on record: for Selectivity index (SI): SI=CC50/IC50.
Data set [2] addresses M^pro-SARS-CoV-2 (3CL Protease) (Severe acute respiratory syndrome coronavirus 2, UniProt P0DTD1). Kind of data set: M^pro-SARS-CoV-2 inhibition, 3CL Protease. In kind it is biochemical.
Another data set has as its system SARS-CoV-2. To be noted: read-out: EC50 (Vero-E6 cell); against SARS-CoV-2, Vero-E6 cell; cited from earlier work.
The subject of the next data set is VERO-E6 cells. Kind of data set: MTT cytotoxicity assay. The settings on record: MTT, 24 h. In kind it is cell-based.

A value given as a limit tells only on which side of the number the result lay.

For the compound `CCOP(=O)(OCC)N1C/C(=C\c2ccccc2)C(=O)C2(C1)C(c1ccccc1)CN(C)C21C(=O)Nc2ccc(Cl)cc21` (stereo not shown) [Compound 6b, Diethyl (E)-(5″-benzylidene-5-chloro-1′-methyl-2,4″-dioxo-4′-phenyldispiro[indoline-3,2′-pyrrolidine-3′,3″-piperidin]-1″-yl)phosphonate], in “MTT cytotoxicity assay”, the cytotoxic concentration (CC50) at 24 h came to 22 µM. In addition, the “Selectivity index (SI)” value in data set [1] worked out at 2.12. Moreover, 9.6 ± 0.66 µM corresponded to half-maximal inhibition in data set [2] (IC50).

Turning to `CCOP(=O)(OCC)N1C/C(=C\c2ccc(F)cc2)C(=O)C2(C1)C(c1ccc(F)cc1)CN(C)C21C(=O)Nc2ccc(Cl)cc21` (stereo not shown) [Compound 6d, Diethyl (E)-[5-chloro-5''-(4-fluorobenzylidene)-4'-(4-fluorophenyl)-1′-methyl-2,4″-dioxodispiro[indoline-3,2′-pyrrolidine-3′,3″-piperidin]-1″-yl]phosphonate], in “MTT cytotoxicity assay”, the midpoint of cytotoxicity, the CC50 at 24 h, lay at 18.8 µM. The “Selectivity index (SI)” value in data set [1] stood at 1.39. Besides, half-maximal inhibition in data set [2] (IC50) required 42.8 ± 2.53 µM.

`CCOP(=O)(OCC)N1C/C(=C\c2ccc(Br)cc2)C(=O)C2(C1)C(c1ccc(Br)cc1)CN(C)C21C(=O)Nc2ccccc21` (stereo not shown) [Compound 6g, Diethyl (E)-[5''-(4-bromobenzylidene)-4'-(4-bromophenyl)-1′-methyl-2,4″-dioxodispiro[indoline-3,2′-pyrrolidine-3′,3″-piperidin]-1″-yl]phosphonate] came in with a 50% cytotoxic concentration (CC50) at 24 h in the data set “MTT cytotoxicity assay” of 20.3 µM. Besides, in data set [1], the “Selectivity index (SI)” value amounted to 2.29. The IC50 in data set [2] came to 15.6 ± 1.02 µM.

For `COc1cccc2[nH]c(C(=O)N[C@@H](CC(C)C)C(=O)N[C@@H](C[C@@H]3CCNC3=O)C(=O)CO)cc12` [PF-00835231], the EC50 in the data set on SARS-CoV-2 was ≤ 230 nM.

In turn, “Diethyl (E)-(5″-benzylidene-1′-methyl-2,4″-dioxo-4′-phenyldispiro[indoline-3,2′-pyrrolidine-3′,3″-piperidin]-1″-yl)phosphonate [Compound 6a]” returned a CC50 in the data set with VERO-E6 cells of 73.1 µM. Also, the IC50 in data set [1] amounted to 88.6 µM.

“Diethyl (E)-[1′-methyl-2,4″-dioxo-4'-(thiophen-2-yl)-5''-(thiophen-2-ylmethylene)dispiro[indoline-3,2′-pyrrolidine-3′,3″-piperidin]-1″-yl]phosphonate [Compound 6k]” registered a CC50 in the data set with VERO-E6 cells of 49.9 µM. For the same compound, it took 106 µM to reach half-maximal inhibition in data set [1] (IC50).

Compound “Diethyl (E)-[1′-methyl-5''-(4-methylbenzylidene)-2,4″-dioxo-4'-(p-tolyl)dispiro[indoline-3,2′-pyrrolidine-3′,3″-piperidin]-1″-yl]phosphonate [Compound 6i]” gave a half-maximal cytotoxic concentration (CC50) in the data set on VERO-E6 cells of 87 µM. Further, the midpoint of inhibition in data set [1], the IC50, lay at 35.2 µM.

“Diethyl (E)-[5''-(4-chlorobenzylidene)-4'-(4-chlorophenyl)-1′-methyl-2,4″-dioxodispiro[indoline-3,2′-pyrrolidine-3′,3″-piperidin]-1″-yl]phosphonate [Compound 6e]”: it took 9.83 µM to reach half-maximal cytotoxicity with VERO-E6 cells (CC50). Moreover, the concentration for half-maximal inhibition (IC50) in data set [1] is 340 µM.

In the data set with VERO-E6 cells, “Diethyl (E)-[5''-(4-fluorobenzylidene)-4'-(4-fluorophenyl)-1′-methyl-2,4″-dioxodispiro[indoline-3,2′-pyrrolidine-3′,3″-piperidin]-1″-yl]phosphonate [Compound 6c]” came in with a half-maximal cytotoxic concentration (CC50) of 126 µM. Besides, in data set [1], the 50% inhibitory concentration (IC50) was 85.8 µM.

“Diethyl (E)-[5''-(4-methoxybenzylidene)-4'-(4-methoxyphenyl)-1′-methyl-2,4″-dioxodispiro[indoline-3,2′-pyrrolidine-3′,3″-piperidin]-1″-yl]phosphonate [Compound 6h]” returned a CC50 in the data set with VERO-E6 cells of 38.3 µM. Further, the IC50 in data set [1] was 46.7 µM.

The compound “Diethyl (E)-[5-chloro-1′-methyl-2,4″-dioxo-4'-(thiophen-2-yl)-5''-(thiophen-2-ylmethylene)dispiro[indoline-3,2′-pyrrolidine-3′,3″-piperidin]-1″-yl]phosphonate [Compound 6l]” came in with a cytotoxic concentration (CC50) in the data set on VERO-E6 cells of 23.7 µM. The compound also showed an IC50 in data set [1] of 578 µM.

“Diethyl (E)-[5-chloro-1′-methyl-5''-(4-methylbenzylidene)-2,4″-dioxo-4'-(p-tolyl)dispiro[indoline-3,2′-pyrrolidine-3′,3″-piperidin]-1″-yl]phosphonate [Compound 6j]” registered a CC50 with VERO-E6 cells of 40.1 µM. For the same compound, half-maximal inhibition in data set [1] (IC50) required 21.7 µM.

“Diethyl (E)-[5-chloro-5''-(4-chlorobenzylidene)-4'-(4-chlorophenyl)-1′-methyl-2,4″-dioxodispiro[indoline-3,2′-pyrrolidine-3′,3″-piperidin]-1″-yl]phosphonate [Compound 6f]” had a CC50 in the data set with VERO-E6 cells of 10 µM. Besides, inhibition in data set [1] was half-maximal at 7.26 µM (IC50).

Broadly, the CC50 is the concentration at which the toxic effect on the cells reaches its halfway point. A low value points to greater toxicity to the cells. As a reminder, the IC50 is the concentration that inhibits the measured activity by half. A lower IC50 goes with greater potency. In general, EC50 refers to the midpoint of the concentration-response curve.
